Here are results for 21 molecules from US11325916B1, “Spiropyrrolidine derived antiviral agents” (priority 2021, dated 2022).

SMILES strings stand for the structures. pIC50: −log10 of the molar value.

The target of this assay is SARS-CoV-2 3CL-protease (Severe acute respiratory syndrome coronavirus 2 (2019-nCoV) (SARS-CoV-2), UniProt P0DTD1). The assay can be described thus: SARS-CoV-2 3C-Like (3CL) Protease Fluorescence Assay (FRET). It counts as biochemical.
One may read the pIC50 as −log10 of the IC50, conventionally taken in molar units. Lower therefore signals a high IC50. `CC(=O)N[C@@H](C)C(=O)N(C)[C@@H](CC(C)(C)C)C(=O)N1C[C@]2(C[C@H]1C#N)C(=O)Nc1ccccc12` [Example 129] had a pIC50 greater than 7.00.

`CC(C)(C)C(NC(=O)C(F)(F)F)C(=O)N1CCC[C@H]1C(=O)N1C[C@]2(C[C@H]1C#N)C(=O)Nc1ccccc12` (stereo partly drawn) [Example 102] showed a pIC50 of less than 6.00.

The molecule `CC(C)(C)C[C@H](NC(=O)[C@H](CC1CC1)NC(=O)c1cnccn1)C(=O)N1C[C@]2(C[C@H]1C#N)C(=O)Nc1ccccc12` [Example 98] showed a pIC50 greater than 7.00.

Molecule `CC(C)(C)C[C@H](NC(=O)[C@H](CC1CC1)NC(=O)C(F)(F)F)C(=O)N1C[C@]2(C[C@H]1C#N)C(=O)Nc1ccccc12` [Example 96] showed a pIC50 greater than 7.00.

As for `CN(C)[C@@H](CC1CC1)C(=O)N[C@@H](CC(C)(C)C)C(=O)N1C[C@]2(C[C@H]1C#N)C(=O)Nc1ccccc12` [Example 106], the pIC50 was less than 6.00.

For the molecule `CN(C)[C@@H](CC1CC1)C(=O)N(C)[C@@H](CC(C)(C)C)C(=O)N1C[C@]2(C[C@H]1C#N)C(=O)Nc1ccccc12` [Example 132], the pIC50 is 6.00 to 7.00.

For `CC(C)(C)C[C@H](NC(=O)[C@H](CC1CC1)NC(=O)N1CCCCC1)C(=O)N1C[C@]2(C[C@H]1C#N)C(=O)Nc1ccccc12` [Example 101], the pIC50 was greater than 7.00.

Consider `Cc1cc(C(=O)N[C@@H](CC2CC2)C(=O)N[C@@H](CC(C)(C)C)C(=O)N2C[C@]3(C[C@H]2C#N)C(=O)Nc2ccccc23)no1` [Example 99], for which the pIC50 is greater than 7.00.

`CC(C)(C)C[C@H](NC(=O)[C@H](CC1CC1)n1cc(C2CC2)nn1)C(=O)N1C[C@]2(C[C@H]1C#N)C(=O)Nc1ccccc12` [Example 53] had a pIC50 greater than 7.00.

Take `CC(C)(C)C[C@H](NC(=O)[C@H](Cc1ccc(F)cc1)NC(=O)c1cnccn1)C(=O)N1C[C@]2(C[C@H]1C#N)C(=O)Nc1ccccc12` [Example 104]: the pIC50 was greater than 7.00.

In turn, `CC(C)(C)C[C@H](NC(=O)[C@H](CC1CC1)NS(=O)(=O)C1CC1)C(=O)N1C[C@]2(C[C@H]1C#N)C(=O)Nc1ccccc12` [Example 37] had a pIC50 greater than 7.00.

`CC(=O)N[C@@H](Cc1ccc(F)cc1)C(=O)N(C)[C@@H](CC(C)(C)C)C(=O)N1C[C@]2(C[C@H]1C#N)C(=O)Nc1ccccc12` [Example 103] had a pIC50 greater than 7.00.

`CC(C)(C)C[C@H](NC(=O)[C@H](CC1CC1)NC(=O)C(F)(F)c1ccccc1)C(=O)N1C[C@]2(C[C@H]1C#N)C(=O)Nc1ccccc12` [Example 79]: the pIC50 was greater than 7.00.

Molecule `CC(C)(C)C[C@H](NC(=O)[C@H](CC1CC1)N1CCOC1=O)C(=O)N1C[C@]2(C[C@H]1C#N)C(=O)Nc1ccccc12` [Example 119] showed a pIC50 greater than 7.00.

Regarding `CC(C)(C)C[C@H](NC(=O)[C@H](CC1CC1)NC(=O)N1CCOCC1)C(=O)N1C[C@]2(C[C@H]1C#N)C(=O)Nc1ccccc12` [Example 84], the pIC50 was greater than 7.00.

`CC(C)(C)C[C@H](NC(=O)[C@H](CC1CC1)NC(=O)c1ccc(F)cc1)C(=O)N1C[C@]2(C[C@H]1C#N)C(=O)Nc1ccccc12` [Example 97] had a pIC50 greater than 7.00.

For `CN(C(=O)[C@H](CC1CC1)NC(=O)c1cc(F)c2nn(C3CC3)cc2c1)[C@@H](CC(C)(C)C)C(=O)N1C[C@]2(C[C@H]1C#N)C(=O)Nc1ccccc12` [Example 127], the pIC50 was greater than 7.00.

As to `CC(C)C[C@@H](C(=O)N1C[C@]2(C[C@H]1C#N)C(=O)Nc1ccccc12)N(C)C(=O)C(NC(=O)c1ccc(F)c(F)c1)c1ccccc1` (stereo partly drawn) [Example 118], the pIC50 is greater than 7.00.

`CC(C)C[C@@H](C(=O)N1C[C@]2(C[C@H]1C#N)C(=O)Nc1ccccc12)N(C)C(=O)[C@@H](NC(=O)C(F)(F)F)c1ccccc1` [Example 116] showed a pIC50 greater than 7.00.

For the molecule `CC(C)C[C@@H](C(=O)N1C[C@]2(C[C@H]1C#N)C(=O)Nc1ccccc12)N(C)C(=O)[C@H](NC(=O)C(F)(F)F)c1ccccc1` [Example 117], the pIC50 is greater than 7.00.

Molecule `CN(C(=O)[C@H](CC1CC1)NC(=O)c1cc(OC(F)(F)F)c2ncccc2c1)[C@@H](CC(C)(C)C)C(=O)N1C[C@]2(C[C@H]1C#N)C(=O)Nc1ccccc12` [Example 125] had a negative logarithm of the IC50 (pIC50) greater than 7.00.
